# How the values were obtained:
# [1] = test system: 109 different protein kinases; assay: Screen of 109 kinases (Dundee); type: biochemical; details: 25 μM solution; many kinases
# [2] = test system: HeLa cells with doxycycline-inducible PKCε; assay: Invasion of HeLa cells through a reconstituted basement membrane matrix; type: cell-based; details: PKCε induced with doxycycline, Figure 6C
# Protocol: Figure 6 Compound 8 inhibits MARCKS phosphorylation, cell proliferation, and invasion following treatment with 8. (A) HeLa cells were starved for 16 h in medium without fetal calf serum. Subsequently, they were treated with 50 μM solution of compound 8 for 30 min and 100 nM TPA for the last 10 min. An amount of 150 μg of protein from lysed cells was loaded onto SDS 8–16% gels. Tubulin was used as loading control. Below a representative blot, a bar graph corresponding to quantitative scans of three independent experiments (±SD) is shown. (B) Cell proliferation following treatment of HeLa and PC-3 cells with 8. The mean values (±SD) of three independent experiments, in which three samples were taken within each experiment, are shown. (C) Invasion of cells through a membrane. Cell invasion was determined as described in Experimental Section. In HeLa cells with a doxycycline-inducible PKCε the expression of PKCε was induced with doxycycline (control + Dox). The mean of three experiments (±SD) is shown: (∗) p = 0.03. The data are normalized to the control (100%). Therefore, the standard deviation for the control is 0.
# For cell migration and motility, a scratch migration assay described by Cha et al.[41] was employed. […] Invasion of HeLa cells through a reconstituted basement membrane matrix was determined with a cell invasion assay kit from Chemicon (no. ECM550) as described by the manufacturer.
# [3] = molecular target: ERK1 (Homo sapiens, UniProt P27361); assay: Kinase profiling (Dundee), ERK1; type: biochemical; details: 25 μM solution
# Chain of ERK1 (P27361 whole entry, species assumed): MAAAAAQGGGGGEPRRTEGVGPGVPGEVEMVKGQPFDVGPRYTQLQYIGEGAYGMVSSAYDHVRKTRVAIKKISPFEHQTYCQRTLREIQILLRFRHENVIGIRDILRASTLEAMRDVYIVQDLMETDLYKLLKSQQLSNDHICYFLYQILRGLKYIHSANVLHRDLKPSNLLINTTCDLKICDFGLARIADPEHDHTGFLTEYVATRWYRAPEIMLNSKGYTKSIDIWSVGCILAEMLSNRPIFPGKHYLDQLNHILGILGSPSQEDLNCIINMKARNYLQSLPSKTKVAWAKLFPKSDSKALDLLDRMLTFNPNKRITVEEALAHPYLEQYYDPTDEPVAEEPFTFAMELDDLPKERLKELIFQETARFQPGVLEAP
# [4] = molecular target: T1, PKCε (Homo sapiens, UniProt Q02156); assay: PKC isozyme assay, PKCε; type: biochemical; details: 50 µM, Supp. Figure 2
# T1 sequence (Q02156 1-737): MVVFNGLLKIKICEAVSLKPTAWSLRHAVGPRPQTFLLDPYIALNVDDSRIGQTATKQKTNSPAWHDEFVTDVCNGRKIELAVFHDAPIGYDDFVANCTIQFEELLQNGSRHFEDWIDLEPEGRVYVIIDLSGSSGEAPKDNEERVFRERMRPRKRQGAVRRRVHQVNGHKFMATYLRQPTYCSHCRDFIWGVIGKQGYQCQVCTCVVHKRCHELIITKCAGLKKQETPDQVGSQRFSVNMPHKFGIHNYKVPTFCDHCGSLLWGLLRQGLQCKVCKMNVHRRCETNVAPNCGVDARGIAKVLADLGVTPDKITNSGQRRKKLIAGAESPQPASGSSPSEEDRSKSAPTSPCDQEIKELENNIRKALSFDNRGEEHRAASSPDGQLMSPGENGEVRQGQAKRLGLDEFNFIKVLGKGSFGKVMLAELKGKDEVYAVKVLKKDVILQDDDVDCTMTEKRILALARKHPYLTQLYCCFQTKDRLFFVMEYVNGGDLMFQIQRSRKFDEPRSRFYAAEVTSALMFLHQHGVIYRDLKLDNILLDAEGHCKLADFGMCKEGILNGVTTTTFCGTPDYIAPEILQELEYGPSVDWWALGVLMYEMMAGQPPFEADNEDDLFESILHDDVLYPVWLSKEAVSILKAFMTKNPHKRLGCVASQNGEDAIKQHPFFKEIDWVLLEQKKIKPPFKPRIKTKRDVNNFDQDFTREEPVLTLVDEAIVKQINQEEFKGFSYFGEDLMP
# Protocol: Supporting Information Figure 2. Effect of compound 8 on PKC isozymes. 50 µM of compound
# 8 were used in the PKC assays as described in Gruber et al., J. Biochem. 2011, 149, 331-336. *p
# = 0.015, **p = 0.0028, ***p = 0.0007. The control is standardized (100%). Therefore, the
# standard deviation for the control is 0.
# (1 picture or pasted object on this page, not shown here)
# [5] = test system: PKCε; assay: PKCε translocation by immunofluorescence in PC-3 cells; type: cell-based, human; details: Figure 4
# Protocol: PC-3 cells were grown on glass coverslips coated with poly-L-lysine (Sigma-Aldrich). After treatment with 8 for 30 min and with 100 nM TPA for 5 min, the cells were rinsed twice with phosphate buffered saline (PBS) and fixed with filter sterilized 4% (w/v) paraformaldehyde/4% sucrose (w/v) (both from Sigma-Aldrich) in PBS at room temperature for 10 min. Subsequently the cells were washed three times with PBS and permeabilized with 0.2% Triton X-100/0.2% IgG-free BSA in PBS at room temperature for 10 min. After blocking with 5% normal goat serum diluted in PBS as described above for 30 min, cells were incubated with the primary antibodies for PKCε (Santa Cruz; diluted 1:500) in 0.2% Triton X-100/0.2% IgG-free BSA in PBS at 4 °C overnight. Subsequently, the cells were washed three times with the same buffer and incubated with the labeled secondary antibody (Alexa Fluor, Invitrogen, Life Technologies, Carlsbad, CA; 1:4000) at room temperature for 1 h. After three more washes with 0.2% Triton X-100/0.2% IgG-free BSA in PBS, cells were mounted with Mowiol (Sigma-Aldrich) and images were taken with an Olympus BX 50 optical microscope (Olympus Corporation, Tokyo, Japan).
structure (smiles),measurement,setting,value
"CC(=O)c1cccc(NC(=O)c2sc3nc4cc5c(cc4cc3c2N)OCCO5)c1 [Compound 8, N-(3-acetylphenyl)-9-amino-2,3-dihydro-1,4-dioxino[2,3-g]thieno[2,3-b]quinoline-8-carboxamide]",Effect on kinases in a screen of 109 kinases,[1],not or only slightly affected
same,Invasion of cells through an extracellular matrix,[2],inhibited
same,"ERK1 activity, % of control",[3],55 % of control
same,Inhibition of PKCε in vitro,[4],does not inhibit
same,TPA-induced PKCε translocation to the plasma membrane (immunocytochemistry),[5],prevented

# Reference: article PMC4001449, “Thienoquinolines as Novel Disruptors of the PKCε/RACK2 Protein–Protein Interaction” (Journal of Medicinal Chemistry, 2014)
